Measured values taken from patent US20090318551A1, “USES OF ANALOGS OF 3-O-ACETYL-11-KETO-BETA-BOSWELLIC ACID” (priority 2004, published 2009).

Experiments:
Artemia salina = assay: Brine shrimp lethality (BSL) assay; type: in vivo; conditions: nauplii, viability/mortality after 24 hr
Excerpt: Brine shrimp lethality (BSL) assay is a simple bench top bioassay developed by McLaughlin, et. al. (Studies in Natural Product Chemistry, 9, page 383, 1991 and Am. Chem. Soc. Symp. Series, 534, page 114, 1992) and the results obtained by this assay have been reported to be corroborative with the cytotoxicities determined in 9KB and 9PS cells. The procedure involves hatching Artemia salina cysts in a cone shaped vessel and collecting active nauplii after 48 hr and treating with known concentrations of test substances and vehicle (control) in tubes each tube containing 10 nauplii and checking viability/mortality after 24 hr. Percentage lethality was calculated by comparing mean values of control and test sets of three tubes each. LC50 values were obtained from the graph plotted micro molar concentration against percent lethality.

5-LO = molecular target: T1, 5-LO (Homo sapiens, UniProt P09917); conditions: compared with the six boswellic acids; cited from earlier work
T1 sequence (P09917 1-674): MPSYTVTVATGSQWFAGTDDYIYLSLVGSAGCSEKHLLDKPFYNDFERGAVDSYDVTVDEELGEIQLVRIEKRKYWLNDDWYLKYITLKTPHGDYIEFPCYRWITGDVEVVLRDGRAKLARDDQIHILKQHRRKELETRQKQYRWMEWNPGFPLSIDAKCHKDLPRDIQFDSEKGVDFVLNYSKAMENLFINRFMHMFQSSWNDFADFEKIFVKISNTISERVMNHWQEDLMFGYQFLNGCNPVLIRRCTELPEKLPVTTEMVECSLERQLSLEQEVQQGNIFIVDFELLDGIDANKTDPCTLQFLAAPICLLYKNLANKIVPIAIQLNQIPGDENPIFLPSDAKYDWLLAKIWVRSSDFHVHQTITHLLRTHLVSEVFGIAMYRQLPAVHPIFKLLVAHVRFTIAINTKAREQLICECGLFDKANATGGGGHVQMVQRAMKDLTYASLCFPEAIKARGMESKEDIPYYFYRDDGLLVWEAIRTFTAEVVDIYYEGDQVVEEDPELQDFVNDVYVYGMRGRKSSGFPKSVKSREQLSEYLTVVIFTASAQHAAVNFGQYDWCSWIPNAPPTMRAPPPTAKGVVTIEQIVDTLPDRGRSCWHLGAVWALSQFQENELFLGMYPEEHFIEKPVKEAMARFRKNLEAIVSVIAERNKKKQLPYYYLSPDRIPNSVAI

5-Lipoxygenase = assay: 5-Lox assay (colorimetric, ferric xylenol orange); type: biochemical; conditions: linoleic acid substrate, pH 6.3
Protocol: The AKBA analogs were screened for their 5-Lipoxygenase inhibitory potential using colorimetric method of Craig A. Gay et al (Anal Biochem., 304, 42 46, 2002). The assay mixture contained 50 mM phosphate buffer pH 6.3, 5-Lipoxygenase, various concentrations of test substances and linoleic acid in a total volume of 0.5 mL after 5 min incubation of above reaction mixture 0.5 ml ferric xylenol orange reagent was added and OD was measured after two minutes at 585 nm using spectrophotometer (varian). Controls were run along with test in a similar manner except using vehicle instead of test substance solution. Percent inhibition was calculated by comparing absorbance of test with that of control

3-O-Acetyl-11-keto-β-boswellic acid [Compound B2, reference compound]
LD50 in mcM (Artemia salina): 5.5 mcM
inhibitory activity against 5-LO (in words) (5-LO): most pronounced inhibitory activity against 5-LO
% inhibition @ 100 μM (5-Lipoxygenase; 100 μM test substance): 18.7%
% inhibition @ 250 μM (5-Lipoxygenase; 250 μM test substance): 31%
